Like-named read-outs stand apart in the source and are kept apart here.
Experiments:
[1] = Log D(7.4) determination from RP-18 measurements using a standard curve; type: physicochemical; details: C18 (RP-18) HPLC column with MeOH-water mobile phase; calculated from standard curve (Equation 3) and log kw C18, pH 7.4
From the text: C-18 chromatography was used to determine the distribution coefficient log D(7.4) of the tested compounds using a standard curve. It was constructed for the reference compounds with known experimental log D(7.4) values and studied chromatographically under the same conditions as the analyzed compounds [44] (Table 4). The obtained log kw values were plotted against the log D(7.4) based on BioLoom Database values taken from Andres et al. (Table S6 in the Supplementary Materials). […] In the case of analogues 7 and 14, these differences are the largest and they constitute about 17% and 13%, respectively (Table 4). This means that the obtained log kw values from the C18/MeOH-water (pH = 7.4) chromatographic system reflect the extraction values of log D(7.4) quite well. […] The analytical standards were purchased from Sigma Aldrich […], Darmstadt, Germany). The obtained log kw values from HPLC C-18 were plotted against the log D(7.4) based on BioLoom Database values taken from Andres et al. (Table S6 in the Supplementary Materials).

[2] = RP HPLC on octadecyl (C-18/RP-18) column, buffer-MeOH pH 7.4, log kw by extrapolation; type: physicochemical; details: C18 stationary phase; for log kw C-18: MeOH-buffer pH 7.4, extrapolated intercept; for S: slope of log k vs MeOH content, pH 7.4
From the text: (§1) The retention factors of considered compounds were investigated using five different bonded stationary phases: octadecyl (RP-18), octyl (RP-8), cholesterol (Chol), phosphatidylcholine (IAM), and biphenyl (BPh). Water buffer–methanol mobile phases with pH 7.4 were used. The content of MeOH was varying and it depended on the type of compound and the stationary phase.
For the tested systems, linear relationships were obtained between the retention coefficient log k and the content of MeOH (%) in the mobile phase expressed by the Snyder–Soczewiński equation:log k = log kw + S (% organic modifier)(2) where: log kw—the intercept; S—the slope of regression curve.
Log kw values were estimated by the extrapolation method. Log kw and S parameters are presented in Figure 3, Table 2, and Tables S1–S5 in the Supplementary Materials. These parameters obtained by C-18, C-8, and IAM chromatography are commonly used as lipophilicity descriptors.
(§2) HPLC measurements for C-18, C-8, IAM, Chol, and BPh phases were carried out using a liquid chromatograph Knauer (Knauer, Berlin, Germany) with a single pump working in isocratic mode, a 20 µL simple injection valve, and a UV–visible detector (Knauer, Berlin, Germany) working at 280 nm at room temperature. The retention time of an unretained solute (t0) was determined by the injection of a small amount of citric acid dissolved in water. The mobile phase flow rate was 1 mL/min (0.35 mL/min for Chol). HPLC columns: C18—Eurosil Bioselect 300 × 4 mm, 5 μm; C8—Waters. Symetry 150 × 4.6 mm, 5 μm, 100 Ǻ; IAM—Rexchrom IAM.PC.DD2 100 × 4.6 mm, 12 μm; Chol—Cogent 4 UDC Cholesterol 150 × 2.1 mm, 4 μm; BPh—Kinetex Biphenyl 150 × 4.6 mm, 5 μm were applied.
(§3) Mobile phase for RP-18, RP-8, Chol, and BPh chromatography was composed using 20 mM acetic buffer/MeOH with respective MeOH concentration ranges (volume fractions: C18—from 0.5 to 0.99; C8—from 0.5 to 0.9; IAM—from 0.15 to 0.5; Chol: from 0.45 to 0.9; BPh: from 0.4 to 0.99) to obtain pH = 7.4. In the case of IAM chromatography, phosphate buffer was used. At least five consecutive retention times for five concentrations per every investigated compound for every chromatographic system were measured. Log k parameter was calculated as log k = log (tr−t0/t0), where tr = the retention time of the analyte; t0 = the retention time of an unretained compound.

[3] = Comparison of retention (log kw) on RP-18, RP-8, Chol, IAM and BPh stationary phases; type: physicochemical; details: for retention, in words: investigated stationary phases
From the text: as §1
The lowest log kw values can be observed for RP-18 and IAM stationary phases. For most compounds, log kw IAM values have similar values or are lower than those obtained for C18 stationary phase. […] On the octadecyl column the main contribution to retention comes from almost entirely hydrophobic interactions, when in the case of IAM phase there are additional mechanisms involved in interactions as ion pairing and hydrogen bonding. They can be either attractive or repulsive in nature. This depends on the structure of compound and pH.
as §2, §3

[4] = cited from earlier work

SMILES	chromatographic logD [1]	log kw C-18 [2]	S [2]	retention, in words [3]	log D(7.4) Bio Loom ([4]; standards used for calibration curve, BioLoom Database values taken from Andres et al. ref 44)	retention / determined lipophilicity, in words ([3]; all investigated stationary phases except IAM)	log D(7.4) Bio Loom ([4]; pH 7.4)
CCOC(=O)c1ccc(Nc2nnc(-c3ccc(O)cc3O)s2)cc1 [Compound 15]	3.45	3.238	−4.185				
C[C@]12CCC(=O)C=C1CC[C@@H]1[C@@H]2[C@@H](O)C[C@@]2(C)[C@H]1CC[C@]2(O)C(=O)CO [hydrocortisone, reference compound]		2.210					
Oc1cc(O)c(-c2nnc(Nc3ccc(F)cc3)s2)cc1Cl [Compound 13]	3.14	3.005	−4.173				
Oc1ccc(-c2nnc(-c3ccccc3Cl)s2)c(O)c1 [Compound 4]	2.69	2.67	−3.651				
Oc1ccc(-c2nnc(Nc3cccc4ccccc34)s2)c(O)c1 [Compound 16]	3.21	3.059	−3.931				
Oc1ccc(-c2nnc(COc3ccc(OC(F)(F)F)cc3)s2)c(O)c1 [Compound 18]	2.97	2.879	−3.883	strongest retained			
O=C(CCCN1CCC(O)(c2ccc(Cl)cc2)CC1)c1ccc(F)cc1 [haloperidol, reference compound]		3.012			2.92		
Oc1ccc(-c2nnc(Nc3ccccc3)s2)c(O)c1 [Compound 11]	2.42	2.477	−3.66	relatively low retention factor values			
Oc1ccc(-c2nnc(-c3ccc(O)c(O)c3)s2)c(O)c1 [Compound 7]	1.66	1.907	−3.171			weakest retention	
Cn1c(=O)c2[nH]cnc2n(C)c1=O [theophylline, reference compound]		0.380					
c1ccc2ccccc2c1 [naphthalene, reference compound]		2.615					3.3
Oc1ccc(-c2nnc(-c3ccc(C(F)(F)F)cc3)s2)c(O)c1 [Compound 6]	4.06	3.69	−4.696	strongest retained			
Oc1ccc(-c2nnc(-c3ccccc3)s2)c(O)c1 [Compound 1]	2.51	2.537	−3.494				
Cc1ccc(Nc2nnc(-c3ccc(O)cc3O)s2)cc1 [Compound 12]	3.11	2.986	−4.168				
COc1cc(-c2nnc(-c3ccc(O)cc3O)s2)ccc1O [Compound 8]	2.52	2.545	−3.785	relatively low retention factor values			
Cc1cccc(-c2nnc(-c3ccc(O)cc3O)s2)c1 [Compound 2]	3.13	3	−3.87				
Oc1cc(O)c(-c2nnc(-c3ccc(OC(F)(F)F)cc3)s2)cc1Cl [Compound 10]	4.12	3.734	−4.65	strongest retained			
CC(=O)N1CCN(c2ccc(OCC3COC(Cn4ccnc4)(c4ccc(Cl)cc4Cl)O3)cc2)CC1 (stereo not shown) [ketoconazole, reference compound]		3.370					
CCN(CC)CC(=O)Nc1c(C)cccc1C [lidocaine, reference compound]		2.079					
CCCCNc1nnc(-c2cc(Cl)c(O)cc2O)s1 [Compound 17]	2.83	2.78					
Oc1ccc(-c2nnc(-c3ccccc3F)s2)c(O)c1 [Compound 3]	3.13	3.002	−3.885				
O=[N+]([O-])c1cccc(-c2nnc(-c3ccc(O)cc3O)s2)c1 [Compound 9]	2.47	2.512	−3.432	relatively low retention factor values			
Cn1c(=O)c2c(ncn2C)n(C)c1=O [caffeine, reference compound]		0.802					
CCc1cc(-c2nnc(Nc3ccc(Cl)cc3)s2)c(O)cc1O [Compound 14]	4.88	4.296	−5.335	strongest retained			
Oc1ccc(-c2nnc(-c3ccc(Cl)cc3Cl)s2)c(O)c1 [Compound 5]	4.05	3.678	−4.438				
